Laboratory results taken from the NIST ThermoML archive (doi:10.1021/je0341918).
Numbers after ± are expanded uncertainties.

Test: xn = mol fraction of the nth substance listed
Settings: 101.3 kPa, Liquid

OCCCCO [1,4-butanediol] + O
Settings | mass density [kg/m3] | viscosity [mPa·s]
293.15 K, x1 = 0.0218 | 1001.44 ± 0.26 | 1.792 ± 0.17
293.15 K, x1 = 0.0478 | 1005.97 ± 0.27 | 2.65 ± 0.24
293.15 K, x1 = 0.0789 | 1010.98 ± 0.29 | 3.889 ± 0.34
293.15 K, x1 = 0.1175 | 1015.71 ± 0.3 | 5.788 ± 0.48
293.15 K, x1 = 0.1665 | 1019.86 ± 0.32 | 8.755 ± 0.67
293.15 K, x1 = 0.2305 | 1022.86 ± 0.33 | 11.86 ± 0.86
293.15 K, x1 = 0.3179 | 1024.32 ± 0.33 | 19.07 ± 1.3
293.15 K, x1 = 0.4441 | 1024.18 ± 0.34 | 31.72 ± 2.1
293.15 K, x1 = 0.6426 | 1021.57 ± 0.34 | 56.69 ± 2
293.15 K, x1 = 0.7917 | 1019.04 ± 0.34 | 73.61 ± 7.9
293.15 K, x1 = 0.8663 | 1017.74 ± 0.34 | 80.53 ± 11
293.15 K, x1 = 1 | 1015.76 ± 0.35 | 90.33 ± 15
303.15 K, x1 = 0.0218 | 998.53 ± 0.26 | 1.418 ± 0.14
303.15 K, x1 = 0.0478 | 1002.4 ± 0.26 | 1.957 ± 0.18
303.15 K, x1 = 0.0789 | 1006.62 ± 0.27 | 2.756 ± 0.25
303.15 K, x1 = 0.1175 | 1010.6 ± 0.29 | 3.954 ± 0.35
303.15 K, x1 = 0.1665 | 1014.11 ± 0.3 | 5.775 ± 0.48
303.15 K, x1 = 0.2305 | 1016.62 ± 0.31 | 7.633 ± 0.6
303.15 K, x1 = 0.3179 | 1017.88 ± 0.31 | 12.09 ± 0.88
303.15 K, x1 = 0.4441 | 1017.65 ± 0.32 | 19.66 ± 1.4
303.15 K, x1 = 0.6426 | 1015.15 ± 0.32 | 34.96 ± 2.3
303.15 K, x1 = 0.7917 | 1012.77 ± 0.32 | 45.5 ± 3
303.15 K, x1 = 0.8663 | 1011.48 ± 0.32 | 49.82 ± 3.2
303.15 K, x1 = 1 | 1009.54 ± 0.33 | 55.98 ± 1.9
313.15 K, x1 = 0.0218 | 994.86 ± 0.27 | 1.176 ± 0.11
313.15 K, x1 = 0.0478 | 998.21 ± 0.26 | 1.522 ± 0.14
313.15 K, x1 = 0.0789 | 1001.79 ± 0.26 | 2.053 ± 0.19
313.15 K, x1 = 0.1175 | 1005.16 ± 0.27 | 2.835 ± 0.26
313.15 K, x1 = 0.1665 | 1008.13 ± 0.28 | 4.008 ± 0.35
313.15 K, x1 = 0.2305 | 1010.28 ± 0.29 | 5.198 ± 0.45
313.15 K, x1 = 0.3179 | 1011.36 ± 0.29 | 8.018 ± 0.62
313.15 K, x1 = 0.4441 | 1011.09 ± 0.3 | 12.78 ± 0.92
313.15 K, x1 = 0.6426 | 1008.76 ± 0.3 | 22.43 ± 1.5
313.15 K, x1 = 0.7917 | 1006.4 ± 0.3 | 29.65 ± 2
313.15 K, x1 = 0.8663 | 1005.15 ± 0.3 | 32.53 ± 2.2
313.15 K, x1 = 1 | 1003.31 ± 0.31 | 35.74 ± 2.4
323.15 K, x1 = 0.0218 | 990.45 ± 0.28 | 0.981 ± 0.097
323.15 K, x1 = 0.0478 | 993.4 ± 0.27 | 1.222 ± 0.12
323.15 K, x1 = 0.0789 | 996.45 ± 0.26 | 1.573 ± 0.15
323.15 K, x1 = 0.1175 | 999.34 ± 0.25 | 2.124 ± 0.2
323.15 K, x1 = 0.1665 | 1001.87 ± 0.26 | 2.909 ± 0.26
323.15 K, x1 = 0.2305 | 1003.72 ± 0.27 | 3.683 ± 0.33
323.15 K, x1 = 0.3179 | 1004.68 ± 0.27 | 5.573 ± 0.47
323.15 K, x1 = 0.4441 | 1004.42 ± 0.28 | 8.706 ± 0.67
323.15 K, x1 = 0.6426 | 1002.32 ± 0.28 | 14.6 ± 1
323.15 K, x1 = 0.7917 | 1000 ± 0.28 | 19.29 ± 1.3
323.15 K, x1 = 0.8663 | 998.84 ± 0.29 | 21.11 ± 1.4
323.15 K, x1 = 1 | 997.14 ± 0.31 | 23.63 ± 1.6
333.15 K, x1 = 0.0218 | 985.4 ± 0.3 | 0.871 ± 0.088
333.15 K, x1 = 0.0478 | 987.96 ± 0.29 | 1.042 ± 0.1
333.15 K, x1 = 0.0789 | 990.59 ± 0.28 | 1.281 ± 0.12
333.15 K, x1 = 0.1175 | 993.09 ± 0.27 | 1.652 ± 0.15
333.15 K, x1 = 0.1665 | 995.27 ± 0.27 | 2.191 ± 0.2
333.15 K, x1 = 0.2305 | 996.89 ± 0.27 | 2.705 ± 0.24
333.15 K, x1 = 0.3179 | 997.78 ± 0.27 | 4.017 ± 0.35
333.15 K, x1 = 0.4441 | 997.58 ± 0.27 | 6.143 ± 0.51
333.15 K, x1 = 0.6426 | 995.75 ± 0.29 | 10.12 ± 0.76
333.15 K, x1 = 0.7917 | 993.6 ± 0.3 | 13.04 ± 0.94
333.15 K, x1 = 0.8663 | 992.48 ± 0.31 | 14.29 ± 1
333.15 K, x1 = 1 | 990.93 ± 0.32 | 16.17 ± 1.1
343.15 K, x1 = 0.0218 | 979.61 ± 0.31 | 0.783 ± 0.08
343.15 K, x1 = 0.0478 | 981.88 ± 0.31 | 0.905 ± 0.091
343.15 K, x1 = 0.0789 | 984.16 ± 0.3 | 1.081 ± 0.11
343.15 K, x1 = 0.1175 | 986.37 ± 0.3 | 1.338 ± 0.13
343.15 K, x1 = 0.1665 | 988.29 ± 0.29 | 1.719 ± 0.16
343.15 K, x1 = 0.2305 | 989.74 ± 0.29 | 2.055 ± 0.19
343.15 K, x1 = 0.3179 | 990.6 ± 0.29 | 2.991 ± 0.27
343.15 K, x1 = 0.4441 | 990.49 ± 0.29 | 4.471 ± 0.39
343.15 K, x1 = 0.6426 | 988.97 ± 0.31 | 7.211 ± 0.57
343.15 K, x1 = 0.7917 | 987.21 ± 0.32 | 9.223 ± 0.7
343.15 K, x1 = 0.8663 | 986.17 ± 0.33 | 10.11 ± 0.75
343.15 K, x1 = 1 | 984.81 ± 0.34 | 11.45 ± 0.84
353.15 K, x1 = 0.0218 | 973.52 ± 0.33 | 0.723 ± 0.075
353.15 K, x1 = 0.0478 | 975.53 ± 0.33 | 0.809 ± 0.082
353.15 K, x1 = 0.0789 | 977.47 ± 0.32 | 0.94 ± 0.094
353.15 K, x1 = 0.1175 | 979.3 ± 0.32 | 1.108 ± 0.11
353.15 K, x1 = 0.1665 | 981.05 ± 0.31 | 1.381 ± 0.13
353.15 K, x1 = 0.2305 | 982.41 ± 0.31 | 1.804 ± 0.17
353.15 K, x1 = 0.3179 | 983.3 ± 0.31 | 2.283 ± 0.21
353.15 K, x1 = 0.4441 | 983.33 ± 0.32 | 3.358 ± 0.3
353.15 K, x1 = 0.6426 | 982.14 ± 0.33 | 5.276 ± 0.45
353.15 K, x1 = 0.7917 | 980.68 ± 0.34 | 6.743 ± 0.54
353.15 K, x1 = 0.8663 | 979.77 ± 0.35 | 7.321 ± 0.58
353.15 K, x1 = 1 | 978.59 ± 0.36 | 8.28 ± 0.64
